{"source": "patent US20210363173A1", "about": "“NEUROSTERIOD DERIVATIVES AND USES THEREOF” (ACERUS BIOPHARMA INC., priority 2018, published 2021)", "key": {"[1]": {"assay": "Solubility of esters in oils (solvent added in increments until a room temperature solubility is obtained)", "assay_type": "physicochemical", "settings": "for Solubility Limit / solubility: castor oil, room temperature; for solubility: oil or lipid, thermodynamic from solid, read-out: Solubility Limit", "procedure": "About 150 mg samples of each drug substance in Table are placed in about 300 mg of a test solvent in a test tube. The samples are swirled and gently heated with a warm water bath. Additional solvent is added in about 100 mg increments until solubility is reached. The samples are cooled overnight and if precipitation is observed, then more solvent is again added in portions until a room temperature solubility is obtained. […] Ganaxolone enanthate is a liquid and appeared miscible in the oils tested."}, "[2]": {"settings": "post-oral administration; cited from earlier work"}, "migraine": {"system": "migraine", "settings": "phase 2 clinical trial for migraine; cited from earlier work"}}}
{"compound": "CC(=O)[C@H]1CC[C@H]2[C@@H]3CC[C@H]4C[C@H](O)CC[C@]4(C)[C@H]3CC[C@]12C", "note": "[Allopregnanolone, 5α-pregnan-3α-ol-20-one]", "values": [{"measurement": "Solubility Limit", "setting": "[1]", "value": "< 1", "unit": "% w/w"}, {"measurement": "solubility", "setting": "[1]", "value": "< 10000", "unit": "µg/mL"}]}
{"compound": "CCCCCCC(=O)OC1(C)CCC2(C)C(CCC3C2CCC2(C)C(C(C)=O)CCC32)C1", "note": "(stereo not shown) [Ganaxalone Enanthate]", "values": [{"measurement": "Miscibility in the oils tested", "setting": "[1]; oils tested, substance is a liquid", "value": "miscible"}]}
{"compound": "CC(=O)[C@H]1CC[C@H]2[C@@H]3CC[C@H]4C[C@](C)(O)CC[C@]4(C)[C@H]3CC[C@]12C", "note": "[Ganaxalone, 3a-hydroxy-3-methyl-5a-pregnan-20-one]", "values": [{"measurement": "drug recovered in feces", "setting": "[2]", "value": "~80", "unit": "%"}, {"measurement": "benefit on time to pain relief", "setting": "migraine", "value": "failed to show benefit"}, {"measurement": "Solubility Limit", "setting": "[1]", "value": "~1", "unit": "% w/w"}, {"measurement": "solubility", "setting": "[1]", "value": "~10000", "unit": "µg/mL"}]}
